The values below come from patent publication US20260265238A1, “COMPOUNDS AND PHARMACEUTICAL COMPOSITIONS THAT DEGRADE SWI/SNF-RELATED MATRIX-ASSOCIATED ACTIN-DEPENDENT REGULATOR OF CHROMATIN SUBFAMILY A” (Plexium, Inc., priority 2023, published 2026).

Molecules are shown by their SMILES.

One may read the DC50 as the concentration giving 50% degradation. As a reminder, the inhibition is the share of the control response that was lost under treatment. Lower therefore signals a weak effect.

Assay [1] has as its target T1, SMARCA2-HiBiT HeLa cells (protein which is expressed from the SMARCA2 gene) (Homo sapiens, UniProt P51531).
T1 construct: protein which is expressed from the SMARCA2 and SMARCA4 genes; host or cells: HeLa (SMARCA2-HiBiT engineered line)
Briefly: SMARCA2 degradation assay (HiBiT-fusion HeLa cell line, 24 h, luminescence). The format is cell-based. The method in brief: (§1)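 SMARCA2- or SMARCA4-HiBiT HeLa cells seeded overnight at 37° C, then given compound as a 10-point dilution (typically 10 μM to 300 pM) for 24 h at 37° C. Protein level read by HiBiT lytic detection luminescence; DC50 from dose-response curves; degradation also scored at 1 μM.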
For orientation: With HiBiT, luminescence reflects the tagged protein that the partner subunit can reach.

Assay [2] has as its target T2, SMARCA4-HiBiT HeLa cells (protein which is expressed from the SMARCA4 gene) (Homo sapiens, UniProt P51532).
T2 construct: protein which is expressed from the SMARCA2 and SMARCA4 genes; host or cells: HeLa (SMARCA4-HiBiT engineered line)
Briefly: SMARCA4 degradation assay (HiBiT-fusion HeLa cell line, 24 h, luminescence). The format is cell-based. The method in brief: as §1

T2 sequence (P51532 whole entry): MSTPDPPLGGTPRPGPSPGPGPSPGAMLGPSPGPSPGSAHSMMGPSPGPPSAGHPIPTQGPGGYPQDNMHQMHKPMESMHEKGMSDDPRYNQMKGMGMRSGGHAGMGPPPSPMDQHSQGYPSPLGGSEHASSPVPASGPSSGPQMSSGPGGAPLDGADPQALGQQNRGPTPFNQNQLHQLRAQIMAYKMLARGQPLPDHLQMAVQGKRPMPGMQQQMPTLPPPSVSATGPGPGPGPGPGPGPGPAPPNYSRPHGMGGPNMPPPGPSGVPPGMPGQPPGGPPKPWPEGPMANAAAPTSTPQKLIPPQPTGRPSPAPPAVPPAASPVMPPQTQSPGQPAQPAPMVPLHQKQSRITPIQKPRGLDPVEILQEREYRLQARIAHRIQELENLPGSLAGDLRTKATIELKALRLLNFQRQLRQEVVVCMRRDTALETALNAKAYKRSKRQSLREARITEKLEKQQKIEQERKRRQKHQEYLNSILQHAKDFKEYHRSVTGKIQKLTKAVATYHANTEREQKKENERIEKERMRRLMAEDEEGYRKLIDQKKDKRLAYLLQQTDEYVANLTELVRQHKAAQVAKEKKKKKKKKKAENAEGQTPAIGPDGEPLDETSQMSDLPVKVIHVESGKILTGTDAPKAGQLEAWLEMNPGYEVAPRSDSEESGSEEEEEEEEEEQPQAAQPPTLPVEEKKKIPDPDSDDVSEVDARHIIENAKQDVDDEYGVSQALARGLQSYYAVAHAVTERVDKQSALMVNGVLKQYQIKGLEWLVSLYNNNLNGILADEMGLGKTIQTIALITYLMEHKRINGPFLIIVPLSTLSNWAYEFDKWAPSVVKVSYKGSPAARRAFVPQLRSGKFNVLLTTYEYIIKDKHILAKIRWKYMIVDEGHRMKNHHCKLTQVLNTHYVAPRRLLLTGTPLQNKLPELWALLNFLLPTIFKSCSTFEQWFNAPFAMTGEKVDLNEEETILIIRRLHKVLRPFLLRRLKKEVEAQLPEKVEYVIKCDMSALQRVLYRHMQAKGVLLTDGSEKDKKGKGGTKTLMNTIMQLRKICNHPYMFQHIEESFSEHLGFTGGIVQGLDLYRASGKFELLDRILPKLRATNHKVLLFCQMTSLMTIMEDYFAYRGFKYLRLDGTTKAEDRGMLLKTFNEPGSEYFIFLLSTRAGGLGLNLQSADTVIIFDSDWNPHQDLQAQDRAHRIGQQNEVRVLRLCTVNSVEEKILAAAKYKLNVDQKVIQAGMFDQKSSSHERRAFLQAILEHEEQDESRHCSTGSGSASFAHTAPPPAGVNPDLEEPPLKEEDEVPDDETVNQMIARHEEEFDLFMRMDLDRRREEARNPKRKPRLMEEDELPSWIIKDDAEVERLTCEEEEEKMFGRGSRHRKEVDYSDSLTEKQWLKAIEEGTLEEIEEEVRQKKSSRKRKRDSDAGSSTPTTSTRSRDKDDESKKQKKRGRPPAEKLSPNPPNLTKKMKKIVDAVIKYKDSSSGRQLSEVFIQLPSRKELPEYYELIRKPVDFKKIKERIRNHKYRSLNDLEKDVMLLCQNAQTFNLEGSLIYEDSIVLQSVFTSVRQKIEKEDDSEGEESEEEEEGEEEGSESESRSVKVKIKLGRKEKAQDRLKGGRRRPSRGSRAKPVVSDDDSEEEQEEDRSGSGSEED
T1 sequence (P51531 whole entry): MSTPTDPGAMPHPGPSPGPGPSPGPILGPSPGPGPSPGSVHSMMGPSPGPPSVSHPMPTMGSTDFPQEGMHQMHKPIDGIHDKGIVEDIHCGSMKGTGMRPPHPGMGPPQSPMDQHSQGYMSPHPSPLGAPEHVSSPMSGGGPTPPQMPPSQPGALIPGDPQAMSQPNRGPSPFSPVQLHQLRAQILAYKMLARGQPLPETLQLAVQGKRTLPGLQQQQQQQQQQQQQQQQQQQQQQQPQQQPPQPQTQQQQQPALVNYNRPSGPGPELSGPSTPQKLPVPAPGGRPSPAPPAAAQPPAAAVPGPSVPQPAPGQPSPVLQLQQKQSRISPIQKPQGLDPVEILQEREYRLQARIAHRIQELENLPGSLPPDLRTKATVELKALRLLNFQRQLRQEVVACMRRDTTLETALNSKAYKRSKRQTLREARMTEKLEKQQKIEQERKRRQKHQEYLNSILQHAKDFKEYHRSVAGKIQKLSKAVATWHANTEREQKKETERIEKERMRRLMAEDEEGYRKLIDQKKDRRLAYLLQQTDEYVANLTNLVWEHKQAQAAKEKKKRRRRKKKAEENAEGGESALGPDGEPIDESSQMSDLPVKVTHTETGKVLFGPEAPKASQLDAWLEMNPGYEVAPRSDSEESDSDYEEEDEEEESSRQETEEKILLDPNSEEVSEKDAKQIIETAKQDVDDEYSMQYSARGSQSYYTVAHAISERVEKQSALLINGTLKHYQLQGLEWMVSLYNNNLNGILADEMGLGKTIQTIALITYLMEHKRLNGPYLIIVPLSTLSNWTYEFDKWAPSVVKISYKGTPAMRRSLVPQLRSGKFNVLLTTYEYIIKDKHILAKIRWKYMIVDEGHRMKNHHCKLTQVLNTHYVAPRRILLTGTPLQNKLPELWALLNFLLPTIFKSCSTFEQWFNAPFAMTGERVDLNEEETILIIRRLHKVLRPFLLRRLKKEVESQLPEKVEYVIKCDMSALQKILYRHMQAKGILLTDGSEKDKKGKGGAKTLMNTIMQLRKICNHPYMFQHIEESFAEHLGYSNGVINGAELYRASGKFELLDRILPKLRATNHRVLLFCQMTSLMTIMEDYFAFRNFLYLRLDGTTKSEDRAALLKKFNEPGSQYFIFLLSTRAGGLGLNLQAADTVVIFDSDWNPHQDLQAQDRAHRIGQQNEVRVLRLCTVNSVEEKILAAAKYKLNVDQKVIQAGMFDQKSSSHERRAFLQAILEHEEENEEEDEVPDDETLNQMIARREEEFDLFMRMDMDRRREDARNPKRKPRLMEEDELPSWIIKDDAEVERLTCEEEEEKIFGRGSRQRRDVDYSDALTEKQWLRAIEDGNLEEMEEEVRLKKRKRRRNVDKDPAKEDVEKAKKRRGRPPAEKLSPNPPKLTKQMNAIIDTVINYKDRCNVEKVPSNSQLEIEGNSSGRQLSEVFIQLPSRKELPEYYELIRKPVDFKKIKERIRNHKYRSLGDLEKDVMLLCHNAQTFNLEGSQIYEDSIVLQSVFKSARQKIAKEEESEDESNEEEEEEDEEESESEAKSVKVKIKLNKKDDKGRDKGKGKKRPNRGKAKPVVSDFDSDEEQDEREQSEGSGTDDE

For `Nc1nnc(-c2ccccc2O)cc1N1CC2CN(c3ccnc(C#CCNC(=O)c4cc5ncccn5n4)n3)CC2C1` (stereo not drawn) [Compound P-41, N-(3-(4-(5-(3-amino-6-(2-hydroxyphenyl)pyridazin-4-yl)hexahydropyrrolo[3,4-c]pyrrol-2(1H)-yl)pyrimidin-2-yl)prop-2-yn-1-yl)pyrazolo[1,5-a]pyrimidine-2-carboxamide], the 50% degradation concentration (DC50) in assay [1] and in assay [2] was 50 to 500 nM throughout. Moreover, the “SMARCA2 % Degradation @ 1 μM” value in assay [1] (@ 1 μM) was “++ (++=30-70%)”. This compound had an inhibition at 1 µM in assay [2] (@ 1 μM) of 30 to 70%.
As to `Nc1nnc(-c2ccccc2O)cc1-c1cnn(C2CN(c3ccnc(C#CCn4ccnc4)n3)C2)c1` [Compound P-212, o-{6-amino-5-[1-(1-{2-[3-(1-imidazolyl)-1-propynyl]-4-pyrimidinyl}-3-azetidinyl)-4-pyrazolyl]-3-pyridazinyl} phenol], the half-maximal degradation concentration (DC50) in assay [1] and in assay [2] was 50 to 500 nM each time. In addition, the “SMARCA2 % Degradation @ 1 μM” value in assay [1] (@ 1 μM) is recorded as “++ (++=30-70%)”. This compound also registered an inhibition at 1 µM in assay [2] (@ 1 μM) of 30 to 70%.
As to `Cn1ccc(C(=O)NCC#Cc2nccc(N3CCN(c4cc(-c5ccccc5O)nnc4N)CC3)n2)n1` [Compound P-7, N-[3-(4-{4-[3-amino-6-(2-hydroxyphenyl)pyridazin-4-yl]piperazin-1-yl}pyrimidin-2-yl)prop-2-yn-1-yl]-1-methyl-1H-pyrazole-3-carboxamide], the DC50 in assay [1] is 50 to 500 nM; in assay [2], under 50 nM. Besides, the “SMARCA2 % Degradation @ 1 μM” value in assay [1] (@ 1 μM) is “++ (++=30-70%)”. This compound gave an inhibition at 1 µM in assay [2] (@ 1 μM) of 30 to 70%.
In the case of `Nc1nnc(-c2ccccc2O)cc1N1CC2CCC(C1)N2c1ccnc(C#CCN2CCCCC2)n1` [Compound P-288, 0-(6-amino-5-{8-[2-(3-piperidino-1-propynyl)-4-pyrimidinyl]-3,8-diazabicyclo[3.2.1]oct-3-y1}-3-pyridazinyl)phenol], the DC50 in assay [1] and in assay [2] was 50 to 500 nM each time. For the same compound, in assay [1] (@ 1 μM), the “SMARCA2 % Degradation @ 1 μM” value is listed as “++ (++=30-70%)”. Besides, the inhibition at 1 µM in assay [2] (@ 1 μM) lay in the range of 30 to 70%.
With `C[C@H]1CN(c2ccnc(C#CCn3ccnc3)n2)CCN1c1cc(-c2ccccc2O)nnc1N` [Compound P-293, 0-{5-[(S)-4-{2-[3-(1-imidazolyl)-1-propynyl]-4-pyrimidinyl}-2-methyl-1-piperaziny1]-6-amino-3-pyridazinyl}phenol], the DC50 is 50 to 500 nM in assay [1] and under 50 nM in assay [2]. Moreover, in assay [1] (@ 1 μM), the “SMARCA2 % Degradation @ 1 μM” value is recorded as “++ (++=30-70%)”. Further, in assay [2] (@ 1 μM), the inhibition at 1 µM was under 30%.
Taken in the same sequence, the figures for `Nc1nnc(-c2ccccc2O)cc1N1CC2CCC(C1)N2c1ccnc(C#CCn2cccn2)n1` [Compound P-133, 2-(5-(8-(2-(3-(1H-pyrazol-1-yl)prop-1-yn-1-yl)pyrimidin-4-yl)-3,8-diazabicyclo[3.2.1]octan-3-yl)-6-aminopyridazin-3-yl)phenol] were 50 to 500 nM, 50 to 500 nM, “++ (++=30-70%)” and 30 to 70%.
Take `C[C@@H]1CCN(c2cc(-c3ccccc3O)nnc2N)CCN1c1cc(C#CCN(C)C)ncc1F` [Compound P-419, 0-{5-[(R)-4-{2-[3-(dimethylamino)-1-propynyl]-5-fluoro-4-pyridy1}-5-methyl-1,4-diazepan-1-yl]-6-amino-3-pyridazinyl}phenol]: the DC50 in assay [1] and in assay [2] was 50 to 500 nM each time. Moreover, in assay [1] (1 μM), the “SMARCA2 % Degradation @ 1 μM” value is on record as “+ (+=<30%)”. Further, the inhibition at 1 µM in assay [2] (1 μM) is under 30%.
Turning to `CC1CC(C)N1CC#Cc1cc(N2CCN(c3cc(-c4ccccc4O)nnc3N)CC[C@H]2C)ccn1` (stereo partly drawn) [Compound P-418, 0-{5-[(R)-4-{2-[3-(2,4-dimethyl-1-azetidinyl)-1-propynyl]-4-pyridy1}-5-methyl-1,4-diazepan-1-yl]-6-amino-3-pyridazinyl}phenol], the DC50 in assay [1] and in assay [2] was under 50 nM in each case. The “SMARCA2 % Degradation @ 1 μM” value in assay [1] (1 μM) is on record as “+++ (+++=>70%)”. Moreover, in assay [2] (1 μM), the inhibition at 1 µM is 30 to 70%.
With `Nc1nnc(-c2ccccc2O)cc1N1CCCC2(CCN(c3ccnc(C#CCNC(=O)c4cc5ncccn5n4)n3)CC2)C1` [Compound P-33, N-(3-(4-(2-(3-amino-6-(2-hydroxyphenyl)pyridazin-4-yl)-2,9-diazaspiro[5.5]undecan-9-yl)pyrimidin-2-yl)prop-2-yn-1-yl)pyrazolo[1,5-a]pyrimidine-2-carboxamide], the DC50 in assay [1] and in assay [2] was 50 to 500 nM each time. Further, the “SMARCA2 % Degradation @ 1 μM” value in assay [1] (@ 1 μM) is “++ (++=30-70%)”. This compound displayed an inhibition at 1 µM in assay [2] (@ 1 μM) of 30 to 70%.
In the case of `C[C@@H]1CCN(c2cc(-c3ccccc3O)nnc2N)CCN1c1ccnc(C#CCN2C[C@@H]3C[C@H]2CO3)n1` [Compound P-200], the 50% degradation concentration (DC50) in assay [1] and in assay [2] was 50 to 500 nM throughout. Also, the “SMARCA2 % Degradation @ 1 μM” value in assay [1] (@ 1 μM) is “+++ (+++=>70%)”. The same compound yielded an inhibition at 1 µM in assay [2] (@ 1 μM) of 30 to 70%.
For `C[C@@H]1CCN(c2cc(-c3ccccc3O)nnc2N)CCN1c1ccnc(C#CC2CC(F)(F)C2)c1` [Compound P-396, 0-{5-[(R)-4-{2-[2-(3,3-difluorocyclobutyl)ethynyl]-4-pyridyl}-5-methyl-1,4-diazepan-1-yl]-6-amino-3-pyridazinyl}phenol], the DC50 in assay [1] and in assay [2] was 50 to 500 nM in each case. For the same compound, in assay [1] (1 μM), the “SMARCA2 % Degradation @ 1 μM” value is given as “+++ (+++=>70%)”. For the same compound, the inhibition at 1 µM in assay [2] (1 μM) was in the range of 30 to 70%.
In the case of `C[C@@H]1CCN(c2cc(-c3ccccc3O)nnc2N)CCN1c1ccnc(C#CCN2[C@H](C)C[C@@H]2C)n1` [Compound P-223, o-{5-[(R)-4-(2-{3-[(2R,4S)-2,4-dimethyl-1-azetidinyl]-1-propynyl}-4-pyrimidinyl)-5-methyl-1,4-diazepan-1-y1]-6-amino-3-pyridazinyl}phenol], the DC50 in assay [1] and in assay [2] was under 50 nM throughout. In addition, the “SMARCA2 % Degradation @ 1 μM” value in assay [1] (@ 1 μM) is reported as “++ (++=30-70%)”. The compound further returned an inhibition at 1 µM in assay [2] (@ 1 μM) of 30 to 70%.
Turning to `Nc1nnc(-c2ccccc2O)cc1N1CCCN(c2ccnc(C#CCN3CCS(=O)(=O)CC3)n2)CC1` [Compound P-137, 4-(3-(4-(4-(3-amino-6-(2-hydroxyphenyl)pyridazin-4-yl)-1,4-diazepan-1-yl)pyrimidin-2-yl)prop-2-yn-1-yl)thiomorpholine 1,1-dioxide], the DC50 in assay [1] and in assay [2] was 500 to 5000 nM each time. The “SMARCA2 % Degradation @ 1 μM” value in assay [1] (@ 1 μM) is on record as “++ (++=30-70%)”. This compound came in with an inhibition at 1 µM in assay [2] (@ 1 μM) of 30 to 70%.
Turning to `C[C@@H]1CCN(c2cc(-c3ccccc3O)nnc2N)CCN1c1ccnc(C#CCN2C[C@@H]3C[C@H]2CO3)c1` [Compound P-404, 0-{5-[(R)-4-[2-(3-{(1S,4S)-2-oxa-5-azabicyclo[2.2.1]hept-5-yl}-1-propynyl)-4-pyridyl]-5-methyl-1,4-diazepan-1-yl]-6-amino-3-pyridazinyl}phenol], the DC50 in assay [1] and in assay [2] was 50 to 500 nM in each case. Besides, the “SMARCA2 % Degradation @ 1 μM” value in assay [1] (1 μM) is reported as “++ (++=30-70%)”. The compound further came in with an inhibition at 1 µM in assay [2] (1 μM) of 30 to 70%.
Consider `Cc1nn2ccn(CC#Cc3nccc(N4CC5CCC(C4)N5c4cc(-c5ccccc5O)nnc4N)n3)c(=O)c2c1C` [Compound P-282, 5-[3-(4-{8-[3-amino-6-(o-hydroxyphenyl)-4-pyridaziny1]-3,8-diazabicyclo[3.2.1]oct-3-yl}-2-pyrimidinyl)-2-propynyl]-2,3-dimethyl-1,5,7a-triaza-4(5H)-indenone], for which the DC50 in assay [1] and in assay [2] was 50 to 500 nM throughout. Further, the “SMARCA2 % Degradation @ 1 μM” value in assay [1] (@ 1 μM) is reported as “++ (++=30-70%)”. This compound registered an inhibition at 1 µM in assay [2] (@ 1 μM) of 30 to 70%.
